Each structure is given as a SMILES string. The source made the active and inactive calls. No rule for the calls is given here.

Test system in one assay: not listed separately
The assay is described as follows: PhoP promoter GFP reporter reduction in Typhi – purified and synthesized compounds, set 2, PhoP regulon inhibitor project, dose response (AID 2839). The conditions noted are these: Salmonella Typhi PhoP-promoter GFP reporter, low Mg2+, 4 h; at 150 µM (top of the series).
What is called inhibition is the relative decrease from the control value, in per cent. For `O=C(NCc1ccccc1)N1CCCN(Cc2ccccc2F)C1`, the inhibition is 6.93% (inactive).
Turning to `O=C(Nc1ccccc1)N1CCCN(Cc2ccccc2F)C1`, the inhibition was 28.7% (inactive).
Take `S=C(NCc1ccc(Cl)cc1)Nc1cccc(Cl)c1`: the inhibition was 29.4% (inactive).
On to `Cc1ccc(NC(=S)NCc2ccc(Cl)cc2)cc1`, for which the inhibition is 13.6% (inactive).
In the case of `S=C(NCc1ccc(Cl)cc1)Nc1ccc(Cl)cc1`, the inhibition is 22.4% (inactive).
With `COc1ccc(NC(=S)NCc2ccc(Cl)cc2)cc1`, the inhibition is 8.24% (inactive).
On to `COc1cccc(NC(=S)NCc2ccc(Cl)cc2)c1`, for which the inhibition was -3.63% (inactive).
As for `CCn1cc(C(=O)O)c(=O)c2cc(F)c(N3CCN(C(=S)NC)CC3)cc21`, the inhibition is 4.25% (inactive).
As to `O=C(Nc1ccccc1Cl)N1CCCN(Cc2ccccc2F)C1`, the inhibition is 16.8% (inactive).
As to `CCn1cc(C(=O)O)c(=O)c2cc(F)c(N3CCN(C(=S)NCc4ccccc4)CC3)cc21`, the inhibition was 9.85% (inactive).
Turning to `Cc1cccc(NC(=S)NCc2ccc(Cl)cc2)c1`, the inhibition was 16.8% (inactive).
Regarding `S=C(NCc1ccc(Cl)cc1)Nc1cccnc1`, the inhibition is -36.6% (inactive).
On the same count and under the same terms, the value for `S=C(NCc1ccc(Cl)cc1)Nc1ccc(Br)cc1` was 6.57% (inactive); that for `O=C1C2=C(Nc3ccccc3SC2c2ccccc2C(F)(F)F)c2ccccc21` (stereo not drawn) was 7.29% (inactive); that for `Fc1ccccc1NC(=S)NCc1ccc(Cl)cc1` was -0.65% (inactive).

The test system of the next assay is Salmonella Typhi PhoP-promoter GFP reporter, low Mg2+, 4 h. Described as above.
Conditions: not given
What is called IC50 is the point on the concentration scale where inhibition reaches its midpoint. Consider `O=C1C2=C(Nc3ccccc3SC2c2ccsc2)c2ccccc21` (stereo not drawn), for which the IC50 is 34.5 µM.
On to `O=C1c2ccccc2C2=Nc3ccccc3SC(c3ccccc3F)C12` (stereo not drawn), for which the IC50 is under 0.15 µM.
Turning to `O=C(O)c1cn(-c2ccc(F)cc2)c2cc(Cl)c(F)cc2c1=O`, the IC50 is under 0.15 µM.
With `O=C1C2=C(Nc3ccccc3SC2c2ccc(I)cc2)c2ccccc21` (stereo not drawn), the half-maximal inhibitory concentration (IC50) was 3.67 µM.
In the case of `O=C(Nc1ccccc1)N1CCCN(Cc2ccc(F)cc2)C1`, the half-maximal inhibitory concentration (IC50) is 72.2 µM.
As for `CN(C)CCCN(C(=O)CCc1ccccc1)c1nc2ccc(Cl)cc2s1`, the IC50 was under 0.15 µM.
For `N#C/C(=C\c1ccc[nH]1)C(=O)NC1CC1`, the IC50 was 60.4 µM.
On to `COc1ccc(NC(=O)c2cc(Br)c(Br)s2)cn1`, for which the IC50 was under 0.15 µM.
Consider `O=S(=O)(Nc1c(S(=O)(=O)c2ccccc2)c2nc3ccccc3nc2n1C1CCCCC1)c1ccccc1`, for which the IC50 was under 0.15 µM.
With `COc1cccc(C2Sc3ccccc3NC3=C2C(=O)c2ccccc23)c1` (stereo not drawn), the IC50 was 33.4 µM.
As for `CCCCn1c(NS(=O)(=O)c2ccccc2)c(S(=O)(=O)c2ccc(C)cc2)c2nc3ccccc3nc21`, the half-inhibitory concentration (IC50) was under 0.15 µM.
Consider `O=[N+]([O-])c1ccc(CNC2CCCc3ccccc32)cc1` (stereo not drawn), for which the IC50 is 16.6 µM.
As to `CCn1cc(C(=O)O)c(=O)c2cc(F)c(N3CCN(C(=S)NC(=O)c4ccccc4Cl)CC3)cc21`, the IC50 was 20.5 µM.
On to `O=c1c2ccccc2[nH]c2ccc(F)cc12`, for which the IC50 was under 0.15 µM.
`Cc1ccc(CN2CCCN(C(=O)Nc3ccc(Cl)cc3)C2)cc1`: the IC50 is 46.2 µM.
Consider `Cc1ccc(Nc2cc(C)c3c(O)cccc3n2)cc1C`, for which the half-maximal inhibitory concentration (IC50) was 9.67 µM.
With `CCn1cc(C(=O)O)c(=O)c2cc(F)c(N3CCN(C(=S)Nc4ccccc4C(F)(F)F)CC3)cc21`, the half-maximal inhibitory concentration (IC50) was 24.1 µM.
On to `O=C(Nc1nnc(-c2cccs2)o1)c1cccc(C(F)(F)F)c1`, for which the IC50 is 80.1 µM.
On the same count and under the same terms, the value for `O=C1C2=C(Nc3ccccc3SC2c2ccc(C(F)(F)F)cc2)c2ccccc21` (stereo not drawn) was under 2.35 µM; that for `CN1CCc2nc(SCC(=O)Nc3cccc(F)c3)c(C#N)c(-c3cccs3)c2C1` was 0.05 µM; that for `O=C(Nc1ccc(Cl)cc1)N1CCCN(Cc2ccccc2F)C1` was 31.3 µM.
The same measure, in the same setting: the result for `O=C(Nc1cccnc1)c1cc(Br)c(Br)s1` reads under 0.15 µM; that for `COc1ccccc1Nc1nc(NCc2ccco2)c2ccccc2n1`, under 0.15 µM; that for `COc1ccccc1NC(=O)N1CCCN(Cc2ccccc2F)C1`, 136 µM.
For the molecule `S=C(NCc1ccc(Cl)cc1)Nc1ccncc1`, the IC50 was 15.9 µM.
Take `S=C(NCc1ccccc1Cl)Nc1ccncc1`: the concentration for half-maximal inhibition (IC50) is 131 µM.
As to `CCOc1ccc(NC(=S)N2CCN(c3cc4c(cc3F)c(=O)c(C(=O)O)cn4CC)CC2)cc1`, the concentration for half-maximal inhibition (IC50) is 47.6 µM.
Consider `O=C1C2=C(Nc3ccccc3SC2c2ccco2)c2ccccc21` (stereo not drawn), for which the IC50 is 16.8 µM.
Still for that read-out and setting: the result for `O=C(Nc1ccc(Cl)cc1)N1CCCN(Cc2ccc(F)cc2)C1` reads 61.4 µM; that for `CCn1cc(C(=O)O)c(=O)c2cc(F)c(N3CCN(C(=S)NC(=O)c4ccccc4F)CC3)cc21`, 95.9 µM.
Regarding `O=C(Nc1ccc(Br)cc1)N1CCCN(Cc2ccccc2F)C1`, the IC50 is 61.6 µM.
`COc1ccc(CNC(=S)Nc2ccncc2)cc1`: the IC50 is 48.1 µM.
On the same count and under the same terms, the result for `COc1c(N2CCN(C(=S)NCc3ccccc3)C(C)C2)c(F)cc2c(=O)c(C(=O)O)cn(C3CC3)c12` (stereo not drawn) reads 79.1 µM.
Regarding `CN1CCN(C2=Cc3cc(Cl)ccc3Sc3cc(F)ccc32)CC1`, the IC50 is 53.7 µM.
`CCCCn1c(NS(=O)(=O)c2ccc(C)cc2)c(S(=O)(=O)c2ccccc2)c2nc3ccccc3nc21`: the IC50 is under 0.15 µM.
With `C1=C(CCNc2ncnc3c2[nH]c2ccccc23)CCCC1`, the IC50 is 106 µM.
On to `CCCCCNC(=O)c1cn(CC)c2cc(N3CCN(C)CC3)c(F)cc2c1=O`, for which the IC50 is under 0.15 µM.
As to `CCn1cc(C(=O)O)c(=O)c2cc(F)c(N3CCN(C(=S)Nc4ccc(Cl)cc4)CC3)cc21`, the IC50 was 60.8 µM.

These data come from PubChem BioAssay AID2839 (Southern Research Specialized Biocontainment Screening …, 2010).
